The text below walks through data of US4879390A, “Delta-butyrolactams, thereof, processes for the preparation thereof and their medical use” (priority 1984, dated 1989).

The test system of data set [1] is CCl4 intoxicated mice. The data set can be described thus: Hepato-protective action: SGPT of CCl4 intoxicated mice. In kind it is in vivo, male Kunming strain mice. As to conditions: two oral doses of 250 mg/kg. On the procedure:
(§1) Male Kunming strain mice weighing 18-22 grams were used throughout the experiments. The compounds to be tested were suspended in 5% Tween 80 and given orally by gavage. The vehicle of 5% Tween 80 solution was administered to control mice via the same route. In in vitro experiments, the compounds were dissolved in dimethylformamide and added directly into the incubation mixture.
(§2) The parameters adopted for hepatotoxicity included serum transaminase (SGPT), liver triglycerides, and pathological examination of liver tissues. The liver lesions were scored mainly by the extent of inflammation and necrosis and graded from 0 to 4.
(§3) (a) Hepato-protective action

The subject of data set [2] is thioacetamide hepatotoxicity in mice. The data set can be described thus: Protective action against thioacetamide hepatotoxicity in mice. In kind it is in vivo, male Kunming strain mice. As to conditions: thioacetamide 50 mg/kg. On the procedure: as §1, §2, §3
In the experiment of thioacetamide hepatotoxicity, mice were treated according to the procedure of the first experiment except that thioacetamide (50 mg/kg) was used instead of CCl4.

The test system of data set [3] is NADPH-cytochrome c reductase. The data set can be described thus: Induction of hepatic microsomal enzymes: NADPH-cytochrome c reductase. In kind it is in vivo, male Kunming strain mice. On the procedure: as §1
(§4) The liver microsomal cytochrome P-450 plays a key role in the detoxification of xenobiotics. Mice were administered 250 mg/kg of Clausenamide once daily for 3 days. The control mice received the vehicle. The mice were killed after fasting overnight. Liver microsomes were prepared and microsomal monooxygenases were determined.

Data set [4] relates to Cytochrome b5. The data set can be described thus: Induction of hepatic microsomal enzymes: cytochrome b5. In kind it is in vivo, male Kunming strain mice. On the procedure: as §1, §4
Data set [5] deals with benzo(a)pyrene hydroxylase (AHH). The data set can be described thus: Induction of hepatic microsomal enzymes: benzo(a)pyrene hydroxylase (AHH). The class given is in vivo, male Kunming strain mice. On the procedure:
as §1, §4

Data set [6] deals with pentobarbital sleeping time. The data set can be described thus: Effect on barbiturates sleeping time in mice (pentobarbital). In kind it is in vivo, male Kunming strain mice. To be noted: 250 mg/kg; for Sleeping time (X ± SE): 10 per group, control 71 ± 7, P <0.01. On the procedure: as §1
In another experiment, mice were given a dose of 250 mg/kg of Clausenamide. Sodium pentobarbital (50 mg/kg) was injected ip 1 and 24 h after administration of the compounds. The sleeping time was estimated by recording the interval of disappearance and recovery of righting reflex. […] This means that the prolongation of pentobarbital sleeping time by Clausenamide was due to the inhibition of liver drug metabolism enzyme.

The subject of data set [7] is barbital sleeping time. The data set can be described thus: Effect on barbiturates sleeping time in mice (barbital). The class given is in vivo, male Kunming strain mice. On the procedure:
as §1
In another experiment, mice were given a dose of 250 mg/kg of Clausenamide. […] The sleeping time was estimated by recording the interval of disappearance and recovery of righting reflex. […] This means that the prolongation of pentobarbital sleeping time by Clausenamide was due to the inhibition of liver drug metabolism enzyme.

The nature of data set [8]: Solubility. In kind it is physicochemical.
Where [9] appears, read: 250 mg/kg once daily for 3 days.

In the case of `CN1C(=O)[C@@H](O)[C@H](c2ccccc2)[C@@H]1[C@@H](O)c1ccccc1` (relative stereo) [Clausenamide], the “SGPT (X ± SE)” value in data set [1] (CCl4 intoxicated mice, 8 h apart, 9 per group, control 1678 ± 261) was determined as 617 ± 323 unit %; in data set [2] (250 mg/kg × 2, nine mice per group, control 1696 ± 231, P < 0.01), 718 ± 229 unit %. Moreover, the “SGPT levels of CCl4-intoxicated mice, in words” value in data set [1] was “significantly decreased SGPT levels”. The “Liver lipids (X ± SE)” value in data set [2] (250 mg/kg × 2, control 61 ± 11.7) is 39 ± 3.9 mg/g. For the same compound, the “SGPT levels, in words” value in data set [2] was “markedly lowered the SGPT levels”. Besides, the “NADPH-cytochrome c reductase, in words” value in data set [3] (setting [9]) is listed as “increased significantly”. For the same compound, the NADPH-cytochrome c reductase in data set [3] (250 mg/kg/day × 3, 6 per group, control 103 ± 2.5) is given as 117 ± 2.5 nmol cytochrome c reduced/min/. Further, in data set [4] (setting [9]), the “Cytochrome b5, in words” value was “increased significantly”. In data set [4] (250 mg/kg/day × 3, 6 per group, control 0.15 ± 0.01), the “Cytochrome b5” value is listed as 0.19 ± 0.01 nmol/mg protein. Besides, the “Benzo(a)pyrene hydroxylase activity, in words” value in data set [5] (setting [9]) is reported as “increased significantly”. In addition, the AHH in data set [5] (250 mg/kg/day × 3, 6 per group, control 2.6 ± 0.4) came to 5.7 ± 0.76 nmol/min/mg protein. Also, the “Sleeping time (X ± SE)” value in data set [6] (1 h before pentobarbital 50 mg/kg) turned out to be 152 ± 17 min; in data set [6] (24 h before pentobarbital 50 mg/kg), 46 ± 6 min; in data set [7] (250 mg/kg, 1 h before barbital 200 mg/kg, 10 per group, control 197 ± 27, P >0.05) it was 172 ± 13 min. The “Pentobarbital sleeping time, in words” value is recorded as “prolonged markedly” in data set [6] (1 h prior to pentobarbital) and “shortened significantly” in data set [6] (24 h before pentobarbital). Besides, in data set [7] (prior administration of the compound), the “Barbital sleeping time, in words” value is “did not affect sleeping time”. In addition, in data set [8] (CHCl3, CH2Cl2, ether, ethyl acetate, etc.), the “solubility in common organic solvents” value is “only slightly soluble”. Further, the “solubility in hot methanol, DMSO and DMF” value in data set [8] (hot methanol, DMSO and DMF) is given as “soluble”.
